We go through one compound from ChEMBL document CHEMBL4049447 (J Med Chem, 2017).

The nature of data set [1]: Apparent permeability across apical to basolateral side in human Caco2 cells assessed as drug recovery at 10 uM measured up to 2 hrs by ESI-LC/MS/MS analysis. Type of data set: ADME, cell-based. The conditions noted are these: Caco-2, read-out: Drug recovery. On the technique in general: Caco-2 cells form a polarised layer with tight junctions and transporters.
A short description of data set [2]: Apparent permeability across basolateral to apical side in human Caco2 cells assessed as drug recovery at 10 uM measured up to 2 hrs by ESI-LC/MS/MS analysis. It is filed as ADME, cell-based. The conditions noted are these: Caco-2, read-out: Drug recovery.

As to `Nc1ccc2ccc(CCNCCc3cccc(Cl)c3)cc2n1`, the recovery at 2 h, 10 µM in data set [1] was found to be 63%; in data set [2] it was 103%.
